Results reported in patent publication US20160168130A1, “HETEROARYL SUBSTITUTED PYRAZOLES” (BAYER PHARMA AKTIENGESELLSCHAFT, priority 2013, published 2016).

Assays:
[1] = tested on: HeLa human cervical cancer cell line; test: Proliferation assay (crystal violet staining); type: cell-based; details: 96 h, HeLa cells, 4 days incubation, median, read-out: Biological Assay 2: Proliferation assay (HeLa cell line) median IC50
Experimental: Cultivated tumor cells (cells were ordered from ATCC) were plated at a density of 3000 cells/well in a 96-well multititer plate in 200 μL of growth medium supplemented 10% fetal calf serum. After 24 hours, the cells of one plate (zero-point plate) were stained with crystal violet (see below), while the medium of the other plates was replaced by fresh culture medium (200 μL), to which the test substances were added in various concentrations (0 μM, as well as in the range of 0.001-10 μM; the final concentration of the solvent dimethyl sulfoxide was 0.5%). The cells were incubated for 4 days in the presence of test substances. Cell proliferation was determined by staining the cells with crystal violet: the cells were fixed by adding […] of an 11% glutaric aldehyde solution for 15 minutes at room temperature. After three washing cycles of the fixed cells with water, the plates were dried at room temperature. The cells were stained by adding 100 μL/measuring point of a 0.1% crystal violet solution (pH 3.0). After three washing cycles of the stained cells with water, the plates were dried at room temperature. The dye was dissolved by adding 100 μL/measuring point of a 10% acetic acid solution. Absorbtion was determined by photometry at a wavelength of 595 nm. The change of cell number, in percent, was calculated by normalization of the measured values to the absorbtion values of the zero-point plate(=0%) and the absorbtion of the untreated (0 μm) cells(=100%). The IC50 values were determined by means of a 4 parameter fit.

[2] = molecular target: T1, catalytic domain of human Bub1 (amino acids 704-1085) (Homo sapiens, UniProt O43683); test: Bub1 kinase assay (TR-FRET); type: biochemical; details: 10 μM ATP, 1 μM peptide substrate, median, read-out: Biological Assay 1: Bub1 kinase assay median IC50
T1 construct: catalytic domain of human Bub1 (amino acids 704-1085); His6 (N); made in house; host or cells: Hi5 insect cells
Excerpt: Bub1-inhibitory activities of compounds described in the present invention were quantified using a time-resolved fluorescence energy transfer (TR-FRET) kinase assay which measures phosphorylation of the synthetic peptide Biotin-Ahx-VLLPKKSFAEPG (C-terminus in amide form), purchased from e.g. Biosyntan (Berlin, Germany) by the (recombinant) catalytic domain of human Bub1 (amino acids 704-1085), expressed in Hi5 insect cells with an N-terminal His6-tag and purified by affinity-(Ni-NTA) and size exclusion chromatography.
In a typical assay 11 different concentrations of each compound (0.1 nM, 0.33 nM, 1.1 nM, 3.8 nM, 13 nM, 44 nM, 0.15 μM, 0.51 μM, 1.7 μM, 5.9 μM and 20 μM) were tested in duplicate within the same microtiter plate. To this end, 100-fold concentrated compound solutions (in DMSO) were previously prepared by serial dilution (1:3.4) of 2 mM stocks in a clear low volume 384-well source microtiter plate (Greiner Bio-One, Frickenhausen, Germany), from which 50 nL of compounds were transferred into a black low volume test microtiter plate from the same supplier. Subsequently, 2 μL of Bub1 (the final concentration of Bub1 was adjusted depending on the activity of the enzyme lot in order to be within the linear dynamic range of the assay: typically ˜200 ng/mL were used) in aqueous assay buffer [50 mM Tris/HCl pH 7.5, 10 mM magnesium chloride (MgCl2), 200 mM potassium chloride (KCl), 1.0 mM dithiothreitol (DTT), 0.1 mM sodium ortho-vanadate, 1% (v/v) glycerol, 0.01% (w/v) bovine serum albumine (BSA), 0.005% (v/v) Trition X-100 (Sigma), 1× Complete EDTA-free protease inhibitor mixture (Roche)] were added to the compounds in the test plate and the mixture was incubated for 15 min at 22° C. to allow pre-equilibration of the putative enzyme-inhibitor complexes before the start of the kinase reaction, which was initiated by the addition of 3 μL 1.67-fold concentrated solution (in assay buffer) of adenosine-tri-phosphate (ATP, 10 μM final concentration) and peptide substrate (1 μM final concentration). The resulting mixture (5 μL final volume) was incubated at 22° C. during 60 min., and the reaction was stopped by the addition of 5 μL of an aqueous EDTA-solution (50 mM EDTA, in 100 mM HEPES pH 7.5 and 0.2% (w/v) bovine serum albumin) which also contained the TR-FRET detection reagents (0.2 μM streptavidin-XL665 [Cisbio Bioassays, Codolet, France] and 1 nM anti-phosho-Serine antibody [Merck Millipore, cat. #35-001] and 0.4 nM LANCE EU-W1024 labeled anti-mouse IgG antibody [Perkin-Elmer, product no. AD0077, alternatively a Terbium-cryptate-labeled anti-mouse IgG antibody from Cisbio Bioassays can be used]). The stopped reaction mixture was further incubated 1 h at 22° C. in order to allow the formation of complexes between peptides and detection reagents. Subsequently, the amount of product was evaluated by measurement of the resonance energy transfer from the Eu-chelate-antibody complex recognizing the Phosphoserine residue to the streptavidin-XL665 bound to the biotin moiety of the peptide. To this end, the fluorescence emissions at 620 nm and 665 nm after excitation at 330-350 nm were measured in a TR-FRET plate reader, e.g. a Rubystar or Pherastar (both from BMG Labtechnologies, Offenburg, Germany) or a Viewlux (Perkin-Elmer) and the ratio of the emissions (665 nm/622 nm) was taken as indicator for the amount of phosphorylated substrate. The data were normalised using two sets of (typically 32—) control wells for high—(=enzyme reaction without inhibitor=0% =Minimum inhibition) and low—(=all assay components without enzyme=100%=Maximum inhibition) Bub1 activity. IC50 values were calculated by fitting the normalized inhibition data to a 4-parameter logistic equation (Minimum, Maximum, IC50, Hill; Y=Max+(Min−Max)/(1+(X/IC50)Hill)).

T1 sequence (O43683 704-1085): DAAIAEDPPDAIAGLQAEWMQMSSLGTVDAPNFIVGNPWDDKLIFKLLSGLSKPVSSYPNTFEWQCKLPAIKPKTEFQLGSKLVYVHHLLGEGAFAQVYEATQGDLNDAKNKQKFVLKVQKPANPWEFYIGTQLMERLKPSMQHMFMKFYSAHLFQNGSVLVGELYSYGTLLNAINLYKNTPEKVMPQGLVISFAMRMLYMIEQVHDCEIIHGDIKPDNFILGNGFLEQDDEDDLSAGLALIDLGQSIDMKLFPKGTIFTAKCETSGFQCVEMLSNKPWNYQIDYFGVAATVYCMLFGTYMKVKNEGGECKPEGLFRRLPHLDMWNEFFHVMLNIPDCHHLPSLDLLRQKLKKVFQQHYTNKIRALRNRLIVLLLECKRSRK

Structure (SMILES) | IC50 [1] | IC50 [2]
CCOc1cc(F)c(Cn2cc(C)c(-c3ncc(OC)c(Nc4ccncn4)n3)n2)c(F)c1 [Example 2-1-5, 2-[1-(4-ethoxy-2,6-difluorobenzyl)-4-methyl-1H-pyrazol-3-yl]-5-methoxy-N-(pyrimidin-4-yl)pyrimidin-4-amine] | > 10000 nM | 85 nM
COc1cnc(-c2cc(OC)n(Cc3ccccc3F)n2)nc1Nc1ccncn1 [Example 2-1-7, 2-[1-(2-fluorobenzyl)-5-methoxy-1H-pyrazol-3-yl]-5-methoxy-N-(pyrimidin-4-yl)pyrimidin-4-amine] | > 10000 nM | 3600 nM
CCOc1cc(F)c(Cn2nc(-c3nccc(Nc4ccncn4)n3)c(C)c2C2CC2)c(F)c1 [Example 2-1-3, 2-[5-cyclopropyl-1-(4-ethoxy-2,6-difluorobenzyl)-4-methyl-1H-pyrazol-3-yl]-N-(pyrimidin-4-yl)pyrimidin-4-amine] | > 10000 nM | 17 nM
CCOc1cc(F)c(Cn2nc(-c3ncc(OC)c(Nc4ccnnc4)n3)c(C)c2C2CC2)c(F)c1 [Example 2-1-4, N-{2-[5-cyclopropyl-1-(4-ethoxy-2,6-difluorobenzyl)-4-methyl-1H-pyrazol-3-yl]-5-methoxy-pyrimidin-4-yl}pyridazin-4-amine] | > 10000 nM | 52 nM
CCOc1cc(F)c(Cn2cc(Cl)c(-c3ncc(OC)c(Nc4ccncn4)n3)n2)c(F)c1 [Example 2-1-6, 2-[4-chloro-1-(4-ethoxy-2,6-difluorobenzyl)-1H-pyrazol-3-yl]-5-methoxy-N-(pyrimidin-4-yl)pyrimidin-4-amine] | > 10000 nM | 100 nM
CCOc1cc(F)c(Cn2nc(-c3nccc(Nc4ccncn4)n3)c(Cl)c2C2CC2)c(F)c1 [Example 2-1-1, 2-[4-chloro-5-cyclopropyl-1-(4-ethoxy-2,6-difluorobenzyl)-1H-pyrazol-3-yl]-N-(pyrimidin-4-yl)pyrimidin-4-amine] | > 10000 nM | 5 nM
CCOc1cc(F)c(Cn2nc(-c3ncc(OC)c(Nc4ccncn4)n3)c(C)c2C2CC2)c(F)c1 [Example 2-1-2, 2-[5-cyclopropyl-1-(4-ethoxy-2,6-difluorobenzyl)-4-methyl-1H-pyrazol-3-yl]-5-methoxy-N-(pyrimidin-4-yl)pyrimidin-4-amine] | 3500 nM | 16 nM
